According to patent publication US7361682B2, “Indole derivatives as H3 inverse agonists” (Hoffmann-La Roche Inc., priority 2004, dated 2008):

The compounds below were run against T1, histamine 3 receptor (H3R) (Homo sapiens, UniProt Q9Y5N1) (assay: Binding assay with 3H-(R)α-methylhistamine (competition binding, membranes of human HR3-CHO cell line)). Settings: competition against 3H(R)α-Methylhistamine (1 nM), membrane of the human HR3-CHO cell line; Ki calculated from IC50 by Cheng-Prusoff equation.
T1 construct: expressed in transfected cells; host or cells: CHO cells
Description: Binding assay with ^3H-(R)α-methylhistamine
Saturation binding experiments were performed using HR^3—CHO membranes prepared as described in Takahashi, K, Tokita, S., Kotani, H. (2003) J. Pharmacol. Exp. Therapeutics 307, 213-218.
An appropriate amount of membrane (60 to 80 μg protein/well) was incubated with increasing concentrations of ^3H(R)α-Methylhistamine di-hydrochloride (0.10 to 10 nM). Non specific binding was determined using a 200 fold excess of cold (R)α-Methylhistamine dihydrobromide (500 nM final concentration). The incubation was carried out at room temperature (in deep-well plates shaking for three hours). The final volume in each well was 250 μl. The incubation was followed by rapid filtration on GF/B filters (pre-soaked with 100 μl of 0.5% PEI in Tris 50 mM shaking at 200 rpm for two hours). The filtration was made using a cell-harvester and the filter plates were then washed five times with ice cold washing buffer containing 0.5 M NaCl. After harvesting, the plates were dried at 55° C. for 60 min, then we added scintillation fluid (Microscint 40, 40 microl in each well) and the amount of radioactivity on the filter was determined in Packard top-counter after shaking the plates for two hours at 200 rpm at room temperature.
Binding Buffer: 50 mM Tris-HCl pH 7.4 and 5 mM MgCl2×6H2O pH 7.4. Washing Buffer: 50 mM Tris-HCl pH 7.4 and 5 mM MgCl2×6H2O and 0.5 M NaCl pH 7.4.
Indirect measurement of affinity of H3R inverse agonists: twelve increasing concentrations (ranging from 10 μM to 0.3 nM) of the selected compounds were always tested in competition binding experiments using membrane of the human HR3—CHO cell line. An appropriate amount of protein, e.g. approximately 500 cpm binding of RAMH at Kd, were incubated for 1 hour at room temperature in 250 μl final volume in 96-well plates in presence of ^3H(R)α-Methylhistamine (1 nM final concentration=Kd). […]
All compounds were tested at a single concentration in duplicates. […] Ki's were calculated from IC50 based on Cheng-Prusoff equation (Cheng, Y, Prusoff, W H (1973) Biochem Pharmacol 22, 3099-3108).

T1 sequence (Q9Y5N1 whole entry): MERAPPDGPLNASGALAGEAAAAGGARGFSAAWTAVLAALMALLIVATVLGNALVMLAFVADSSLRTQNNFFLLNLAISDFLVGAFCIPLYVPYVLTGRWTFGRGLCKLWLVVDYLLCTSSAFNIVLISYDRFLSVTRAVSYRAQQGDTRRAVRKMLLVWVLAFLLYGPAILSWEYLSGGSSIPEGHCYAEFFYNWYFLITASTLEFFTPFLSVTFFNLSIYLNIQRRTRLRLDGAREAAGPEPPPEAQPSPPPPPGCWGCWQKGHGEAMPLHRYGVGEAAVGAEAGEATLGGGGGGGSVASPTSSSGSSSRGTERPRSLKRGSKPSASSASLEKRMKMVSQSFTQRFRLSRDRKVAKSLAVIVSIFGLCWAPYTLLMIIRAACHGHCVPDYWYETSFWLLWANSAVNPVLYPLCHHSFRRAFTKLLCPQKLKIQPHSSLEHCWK

First: CC(C)N1CCN(C(=O)c2cc3cc(OCCC4CCCN4C)ccc3[nH]2)CC1 (stereo not drawn) [Example 117, (4-Isopropyl-piperazin-1-yl)-{5-[2-(1-methyl-pyrrolidin-2-yl)-ethoxy]-1H-indol-2-yl}-methanone]
Second: CC(C)N1CCC(Oc2ccc3[nH]c(C(=O)N4CCOCC4)cc3c2)C1 (stereo not drawn) [Example 2, [5-(1-Isopropyl-pyrrolidin-3-yloxy)-1H-indol-2-yl]-morpholin-4-yl-methanone]
The Ki of the first is 3.3-fold higher: 77 nM for the first, 23 nM for the second.

`CC(C)N1CCC(Oc2ccc3cc(C(=O)N4CCSCC4)[nH]c3c2)CC1` [Example 140, [6-(1-isopropyl-piperidin-4-yloxy)-1H-indol-2-yl]-thiomorpholin-4-yl-methanone] showed a Ki of 93 nM.
